Results reported in patent US20090048292A1, “SYNERGISTIC COMBINATION” (priority 2007, published 2009).
Values joined by “and” are separate entries in the source; they are usually repeats but may differ in a detail not shown here. Identical values can stand only once.

Legend:
[1] = tested on: human SK-Mel28 melanoma cells; assay: Different angiogenesis inhibitors as monotherapy in human melanoma model SK-Mel28 (FIG. 1); assay type: in vivo; conditions: daily treatment from tumor size 20-30 mm^2; ZK261991 orally 50 mg/kg per day
Procedure: Human SK-MeI 28 melanoma cells were cultivated in RPMI1640 medium together with 1% glucose and 10% foetal calf serum. 3 million cells per animal have been transferred to NMRI nu/nu nude mice in a volume of 0,1 ml in a 1:1 mixture consisting of media and matri gel. With achieving the tumor size of about 20 mm^2, in this case on day 3, the treatment of the animals has been started.
In a human melanoma model SK-Mel28 different angiogenesis inhibitors have been tested. […] In this experiment the tumor have been daily treated with different compounds beginning after establishment of the tumors, respectively at a size of 20-30 mm^2. The compound ZK261991 was orally applied in a dosage of 50 mg/kg per day and in a volume of 0.1 ml/10 g body weight, as a 5% DMSO/Ethanol 1:1 mixture in 0.085 Myrj85®/0.9% NaCl formulation. ZK222584 (PTK/ZK, Vatalanib) comprised in the same formulation was applied. Further Bay43-9006 (Nexavar®) in 30% hydroxy propyl cyclodextrine (HP-β-CD), pH 5.0 in the same volume of 0.1 ml/10 g body weight was applied. […] However, no reaction could be determined with a dosage of 5 and 10 mg/kg (s. FIG. 2). The tumors have been treated in a daily manner with different MS-275 dosages, beginning with the set up at a size of ca. 20-30 mm^2. MS-275 was applied in 30% hydroxypropyl cyclodextrine (HP-β-CD), pH5.0, in a volume of 0.1 ml/10 g body weight.

[2] = tested on: Human SK-MeI 28 melanoma cells; assay: Combination study of ZK 261991 and MS-275 in human SK-Mel 28 melanoma model in NMRI nu/nu nude mice (tumor area, tumor weight); assay type: in vivo; conditions: for Tumor area on day 57, average: group average; for Tumor area of the single studied groups on day 57: single animals
Procedure: For this, the animals have been randomized and separated into the following test group (8 animals per group, each):
MS-275; 10 mg/kg/day 3. […] Untreated control (these animals received the solution solvent, only)
The compounds are orally daily applied via a probang till the end of the experiment on day 57. The tumor size was determined (length×width) after 6-7 days. On day 57, the animals were sacrificed by breaking the neck and the tumors were isolated. The weight of the tumors was determined. The tumor size (tumor area in mm^2) was inserted into a diagram, as function of the time. An average of the tumor weight of each group was calculated, as well as the variation and was inserted into a diagram. In the same time interval the tumor size was determined, also the body weight was determined by balancing. The data were inserted in a diagram as function of the time.
The tumors were treated in a daily manner with the different compounds beginning with the establishment, at a size of ca. 20.30 mm^2. […] For the calculation of the statistically signification the SigmaStat-programm with the One-Way-ANOVA-analysis was used.
For the calculation of the statistically significance the SigmaStat-program with a One-Way-ANOVA-analysis was used.

[3] = day 57, ZK261991 50 mg/kg/day, MS-275 10 mg/kg/day, oral daily, alone or combined

CNC(=O)c1cc(Oc2ccc(NC(=O)Nc3ccc(Cl)c(C(F)(F)F)c3)cc2)ccn1 [Bay43-9006]
inhibitory effect onto the tumor growth, FIG. 1 [1]: No inhibitory effect

Nc1ccccc1NC(=O)c1ccc(CNC(=O)OCc2cccnc2)cc1 [MS-275, 3-pyridylmethyl-N-{4-[(2-amino-phenyl)-carbamoyl]benzyl}carbamate]
reduction of the tumor weight in comparison to the untreated control (percentage of inhibition) [2, 3]: 0%
Tumor area on day 57, average ([2]; MS-275 10 mg/kg/day oral daily, day 57): 135.7 mm^2
Tumor area of the single studied groups on day 57 ([2]; MS-275 10 mg/kg/day oral daily, day 57, 10 mg/kg/day): 132.1 mm^2 and 169.1 mm^2 and 142.9 mm^2 and 128.6 mm^2 and 169.2 mm^2 and 104.2 mm^2 and 112.1 mm^2 and 127.2 mm^2

Clc1ccc(Nc2nnc(Cc3ccncc3)c3ccccc23)cc1 [ZK222584, Vatalanib]
inhibitory effect onto the tumor growth, FIG. 1 [1]: No inhibitory effect

CN(C)C(=O)Nc1cc(CNc2ccccc2C(=O)Nc2ccc3cn(C)nc3c2)ccn1 [ZK 261991, N′2′-{[2-(3,3-Dimethylureido)pyridine-4-yl]methyl}-N-(2-methyl-2H-indazol-6-yl)Anthranilamid]
inhibitory effect onto the tumor growth, FIG. 1 [1]: No inhibitory effect
reaction of tumor growth (tumor area) to treatment, FIG. 3 ([2]; daily oral treatment, ZK261991 50 mg/kg/day, MS-275 10 mg/kg, alone or combined, One-Way-ANOVA): statistically significant but moderate result
T/C value (tumor weight) [2, 3]: 0.55
reduction of the tumor weight in comparison to the untreated control (percentage of inhibition) [2, 3]: 45%
Tumor area on day 57, average ([2]; ZK 261991 50 mg/kg/day oral daily, day 57): 104.7 mm^2
Tumor area of the single studied groups on day 57 ([2]; ZK 261991 50 mg/kg/day oral daily, day 57, 50 mg/kg/day): 109.5 mm^2 and 100.1 mm^2 (2×) and 105.0 mm^2 and 118.8 mm^2 and 88.8 mm^2 and 116.3 mm^2 and 98.9 mm^2
